Results reported in US20260347372A1, “SMALL MOLECULE INHIBITORS OF KRAS G12D MUTANT” (MERCK SHARP & DOHME LLC, priority 2023, published 2026).

How the values were obtained:
KRAS G12D = KRAS G12D (Homo sapiens, UniProt P01116, G12D); experiment: SOS-catalyzed nucleotide exchange assay, KRAS G12D (Procedure A); assay type: biochemical; conditions: guanine nucleotide exchange (GNE)
Summary of the method: (§1)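 Compounds were preincubated 60 min with a biotinylated RAS·Bodipy-GDP/Tb-streptavidin TR-FRET complex, and exchange was started with human SOS plus 3 mM GTP at RT. RAS/SOS: G12C 3 nM/40 nM, WT and G12D 1 nM/40 nM, all 60 min; G13D 1.25 nM/0 nM, 30 min. 520/495 ratio normalized to DMSO and saturating inhibitor, four-parameter fit.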

KRAS WT = KRAS WT (Homo sapiens, UniProt P01116); experiment: SOS-catalyzed nucleotide exchange assay, KRAS WT (Procedure A); assay type: biochemical; conditions: GNE
KRAS WT, sequence (P01116 with tags, fused parts or gaps isoform P01116-2): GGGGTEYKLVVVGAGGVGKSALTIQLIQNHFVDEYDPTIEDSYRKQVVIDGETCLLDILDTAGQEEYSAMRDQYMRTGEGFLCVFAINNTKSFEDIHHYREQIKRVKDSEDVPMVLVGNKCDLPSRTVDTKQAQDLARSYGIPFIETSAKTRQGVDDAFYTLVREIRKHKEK
Summary of the method: as §1

KRAS G12V = KRAS G12V (Homo sapiens, UniProt P01116, G12V); experiment: SOS-catalyzed nucleotide exchange assay, KRAS G12V (Procedure A); assay type: biochemical; conditions: GNE
KRAS G12V, sequence (P01116 with tags, fused parts or gaps isoform P01116-2 G12V): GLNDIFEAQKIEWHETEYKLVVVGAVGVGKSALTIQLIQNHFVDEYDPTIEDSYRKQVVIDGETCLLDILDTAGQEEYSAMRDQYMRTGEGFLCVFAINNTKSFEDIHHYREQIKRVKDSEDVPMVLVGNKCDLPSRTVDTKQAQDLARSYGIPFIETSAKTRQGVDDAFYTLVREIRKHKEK
Summary of the method: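 Biotinylated KRAS G12V was loaded with Bodipy-GDP alongside Terbium-streptavidin to form a TR-FRET complex, which was preincubated with compounds for 60 minutes in 384-well plates. Human SOS protein and unlabeled GTP were then added for 90 minutes, giving final concentrations of 1.25 nM KRAS-G12V, 160 nM SOS and 3 mM GTP. The 520/495 nm emission ratio was read on an Envision.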

AsPC-1 cells = molecular target: T1, AsPC-1 cells (Homo sapiens, UniProt P01116, G12D); experiment: Cellular phospho-ERK assay, AsPC-1 cells (KRAS G12D); assay type: cell-based; conditions: 2 hours, read-out: AsPC1 pERK IC50
T1 construct: p-ERK/total ERK AlphaSureFire read-out
T1 sequence (P01116 1-188 isoform P01116-2 G12D): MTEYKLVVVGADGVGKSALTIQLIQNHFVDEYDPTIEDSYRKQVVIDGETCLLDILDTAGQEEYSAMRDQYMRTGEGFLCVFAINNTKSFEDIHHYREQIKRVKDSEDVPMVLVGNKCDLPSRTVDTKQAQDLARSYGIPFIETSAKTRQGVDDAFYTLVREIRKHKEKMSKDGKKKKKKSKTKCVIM
Summary of the method: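 PANC08.13 or AsPC-1 cells (homozygous KRAS G12D) were seeded overnight, then treated for 2 h at 37 °C with a 10-point 1:3 titration from 30 μM. Lysates were assayed by AlphaLISA SureFire for p-ERK and total ERK. IC50 came from a 4-parameter fit of the p-ERK/total ERK ratio.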

KRAS G12D, sequence (P01116 with tags, fused parts or gaps isoform P01116-2 G12D): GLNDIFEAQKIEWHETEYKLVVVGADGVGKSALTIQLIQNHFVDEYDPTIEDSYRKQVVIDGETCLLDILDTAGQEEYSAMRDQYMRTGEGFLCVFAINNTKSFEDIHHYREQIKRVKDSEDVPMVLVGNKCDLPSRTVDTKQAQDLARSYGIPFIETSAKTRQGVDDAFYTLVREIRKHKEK

IC50 (KRAS G12D) [nM]	IC50 (KRAS WT) [nM]	IC50 (KRAS G12V) [nM]	IC50 (AsPC-1 cells) [nM]	Compound
1.67	32.8	48.8	8.18	C#Cc1c(F)ccc2cc3[nH]ncc3c(-c3nccc4c3sc3nc(OC[C@@]56CCCN5C/C(=C\F)C6)nc(N5C[C@H]6CC[C@@H](C5)N6)c34)c12 [Ex-89, 4-((1R,5S)-3,8-diazabicyclo[3.2.1]octan-3-yl)-8-(5-ethynyl-6-fluoro-1H-benzo[f]indazol-4-yl)-2-(((S,Z)-2-(fluoromethylene)tetrahydro-1H-pyrrolizin-7a(5H)-yl)methoxy)pyrido[4′,3′:4,5]thieno[2,3-d]pyrimidine]
187	> 11100	> 11100	3310	C#Cc1c(F)ccc2cc3[nH]ncc3c(-c3nccc4c3sc3nc(OCC5(C#N)CCOCC5)nc(N5C[C@H]6CC[C@@H](C5)N6)c34)c12 [Ex-90, 4-(((4-((1R,5S)-3,8-diazabicyclo[3.2.1]octan-3-yl)-8-(5-ethynyl-6-fluoro-1H-benzo[f]indazol-4-yl)pyrido[4′,3′:4,5]thie-no[2,3-d]pyrimidin-2-yl)oxy)methyl)tetrahy-dro-2H-pyran-4-carbonitrile]
50.6	> 11100	> 11100	5030	C#Cc1c(F)ccc2cc3[nH]ncc3c(-c3nccc4c3sc3nc(OCC5(C(=O)NC)CC5)nc(N5C[C@H]6CC[C@@H](C5)N6)c34)c12 [Ex-91, 1-(((4-((1R,5S)-3,8-diazabicyclo[3.2.1]octan-3-yl)-8-(5-ethynyl-6-fluoro-1H-benzo[f]indazol-4-yl)pyrido[4′,3′:4,5]thie-no[2,3-d]pyrimidin-2-yl)oxy)methyl)-N-methylcyclopropane-1-carboxamide]
1.99	57.4	88.2	18.1	C#Cc1c(F)ccc2cc3[nH]ncc3c(-c3nccc4c3sc3nc(OCC56CCCC5N(C)CCC6)nc(N5C[C@H]6CC[C@@H](C5)N6)c34)c12 (stereo partly drawn) [Ex-92, 4-((1R,5S)-3,8-diazabicyclo[3.2.1]octan-3-yl)-8-(5-ethynyl-6-fluoro-1H-benzo[f]indazol-4-yl)-2-((1-methyloctahydro-4aH-cyclopenta[b]pyridin-4a-yl)methoxy)pyrido[4′, 3′:4,5]thieno[2,3-d]pyrimidine]
1.16	72.9	94.3	18	C#Cc1c(F)ccc2cc3[nH]ncc3c(-c3nccc4c3sc3nc(OCC56CCCN5CC(=C(F)F)C6)nc(N5C[C@H]6CC[C@@H](C5)N6)c34)c12 (stereo partly drawn) [Ex-93, 4-((1R,5S)-3,8-diazabicyclo[3.2.1]octan-3-yl)-2-(((S)-2-(difluoromethylene)tetra-hydro-1H-pyrrolizin-7a(5H)-yl)methoxy)-8-(5-ethynyl-6-fluoro-1H-benzo[f]indazol-4-yl)pyrido[4′,3′:4,5] thie-no[2,3-d]pyrimidine]
2.99	847	1950	85.9	C#Cc1c(F)ccc2cc3[nH]ncc3c(-c3nccc4c3sc3nc(OCC5(CN6CC[C@@H](F)C6)CC5)nc(N5C[C@H]6CC[C@@H](C5)N6)c34)c12 [Ex-94, 4-((1R,5S)-3,8-diazabicyclo[3.2.1]octan-3-yl)-8-(5-ethynyl-6-fluoro-1H-benzo[f]indazol-4-yl)-2-((1-(((R)-3-fluoropyrrolidin-1-yl)methyl)cyclopropyl)methoxy)pyrido[4′,3′: 4,5]thieno[2,3-d]pyrimidine]
5.29	2800	6760	180	C#Cc1c(F)ccc2cc3[nH]ncc3c(-c3nccc4c3sc3nc(OCC5(CN(C)C)COC5)nc(N5C[C@H]6CC[C@@H](C5)N6)c34)c12 [Ex-95, 1-(3-(((4-((1R,5S)-3,8-diazabicyclo[3.2.1]octan-3-yl)-8-(5-ethynyl-6-fluoro-1H-benzo[f]indazol-4-yl)pyrido[4′,3′:4,5]thie-no[2,3-d]pyrimidin-2-yl)oxy)methyl)oxetan-3-yl)-N,N-dimethylmethanamine]
1.62	259	248	22.8	C#Cc1c(F)ccc2cc3[nH]ncc3c(-c3nccc4c3sc3nc(OC[C@]5(CN(C)C)CC5(F)F)nc(N5C[C@H]6CC[C@@H](C5)N6)c34)c12 [Ex-96, 1-((1R)-1-(((4-((1R,5S)-3,8-diazabicyclo[3.2.1]octan-3-yl)-8-(5-ethynyl-6-fluoro-1H-benzo[f]indazol-4-yl)pyrido[4′,3′:4,5]thie-no[2,3-d]pyrimidin-2-yl)oxy)methyl)-2,2-difluorocyclopropyl)-N,N-dimethylmethanamine]
3	1290	3130	210	C#Cc1c(F)ccc2cc3[nH]ncc3c(-c3nccc4c3sc3nc(OC[C@@]56CCC7(CC7)N5C[C@H](F)C6)nc(N5C[C@H]6CC[C@@H](C5)N6)c34)c12 [Ex-97, 4-((1R,5S)-3,8-diazabicyclo[3.2.1]octan-3-yl)-8-(5-ethynyl-6-fluoro-1H-benzo[f]indazol-4-yl)-2-(((6′R,7a′S)-6′-fluorotetrahydrospiro[cy-clopropane-1,3′-pyrrolizin]-7a′(5'H)-yl)methoxy)pyrido[4′, 3′:4,5]thieno[2,3-d]pyrimidine]
6.92	6360	> 11100	362	C#Cc1c(F)ccc2cc3[nH]ncc3c(-c3nccc4c3sc3nc(OC[C@]5(CN6CCC7(CCC7)CC6)CC5(F)F)nc(N5C[C@H]6CC[C@@H](C5)N6)c34)c12 [Ex-98, 2-(((R)-1-((7-azaspiro[3.5]nonan-7-yl)methyl)-2,2-difluorocyclopropyl)meth-oxy)-4-((1R,5S)-3,8-diazabicyclo[3.2.1]octan-3-yl)-8-(5-ethynyl-6-fluoro-1H-benzo[f]indazol-4-yl)pyrido[4′,3′:4,5]thie-no[2,3-d]pyrimidine]
1.53	1080	2740	59.9	C#Cc1c(F)ccc2cc3[nH]ncc3c(-c3nccc4c3sc3nc(OC[C@]5(CN6CC7(CC(F)C7)C6)CC5(F)F)nc(N5C[C@H]6CC[C@@H](C5)N6)c34)c12 [Ex-99, 4-((1R,5S)-3,8-diazabicyclo[3.2.1]octan-3-yl)-2-(((R)-2,2-difluoro-1-((6-fluoro-2-azaspiro[3.3]heptan-2-yl)methyl)cyclopropyl)methoxy)-8-(5-ethynyl-6-fluoro-1H-benzo[f]indazol-4-yl)pyrido[4′,3′:4,5]thie-no[2,3-d]pyrimidine]
8.52	> 11100	> 11100	753	C#Cc1c(F)ccc2cc3[nH]ncc3c(-c3nccc4c3sc3nc(OC[C@]5(CN6CCC7(CCCCC7)CC6)CC5(F)F)nc(N5C[C@H]6CC[C@@H](C5)N6)c34)c12 [Ex-100, 2-(((R)-1-((3-azaspiro[5.5]undecan-3-yl)methyl)-2,2-difluorocyclopropyl)meth-oxy)-4-((1R,5S)-3,8-diazabicyclo[3.2.1]octan-3-yl)-8-(5-ethynyl-6-fluoro-1H-benzo[f]indazol-4-yl)pyrido [4′,3′:4,5]thie-no[2,3-d]pyrimidine]
33.1	> 11100	> 11100	1210	C#Cc1c(F)ccc2cc3[nH]ncc3c(-c3nccc4c3sc3nc(OC[C@]5(CN6CCN(CC(F)(F)F)CC6)CC5(F)F)nc(N5C[C@H]6CC[C@@H](C5)N6)c34)c12 [Ex-101, 4-((1R,5S)-3,8-diazabicyclo[3.2.1]octan-3-yl)-2-(((R)-2,2-difluoro-1-((4-(2,2,2-trifluoroethyl)piperazin-1-yl)methyl)cyclopropyl)methoxy)-8-(5-ethynyl-6-fluoro-1H-benzo[f]indazol-4-yl)pyrido[4′,3′:4,5]thie-no[2,3-d]pyrimidine]
12.3	> 11100	> 11100	2770	C#Cc1c(F)ccc2cc3[nH]ncc3c(-c3nccc4c3sc3nc(OC[C@]5(CN6CCN(C(C)=O)CC6)CC5(F)F)nc(N5C[C@H]6CC[C@@H](C5)N6)c34)c12 [Ex-102, 1-(4-(((1R)-1-(((4-((1R,5S)-3,8-diazabicyclo[3.2.1]octan-3-yl)-8-(5-ethynyl-6-fluoro-1H-benzo[f]indazol-4-yl)pyrido [4′,3′:4,5]thie-no[2,3-d]pyrimidin-2-yl)oxy)methyl)-2,2-difluorocyclopropyl)meth-yl)piperazin-1-yl)ethan-1-one]
2	2360	9280	296	C#Cc1c(F)ccc2cc3[nH]ncc3c(-c3nccc4c3sc3nc(OC[C@]5(CN6CC[C@@H](F)C6)CC5(F)F)nc(N5C[C@H]6CC[C@@H](C5)N6)c34)c12 [Ex-103, 4-((1R,5S)-3,8-diazabicyclo[3.2.1]octan-3-yl)-2-(((R)-2,2-difluoro-1-(((R)-3-fluoropyrrolidin-1-yl)methyl)cyclopropyl)methoxy)-8-(5-ethynyl-6-fluoro-1H-benzo[f]indazol-4-yl)pyrido[4′,3′:4,5]thie-no[2,3-d]pyrimidine]
